Test results taken from the supplement of paper PMC13380429.

Assays:
Conditions in all cases: 72 h
[1] = tested on: U2OS; test: cell viability relative to DMSO; higher = less toxic
[2] = tested on: Vero E6; test: as above
[3] = tested on: Caco-2; test: as above
[4] = tested on: Calu-3; test: as above
[5] = tested on: HepG2; test: as above
[6] = tested on: U2OS; test: relative viability EC50 (midpoint between 100% and the lowest measured viability); higher = less toxic
[7] = tested on: Vero E6; test: as above
[8] = tested on: Caco-2; test: as above
[9] = tested on: Calu-3; test: as above
[10] = tested on: HepG2; test: as above
[11] = tested on: U2OS; test: drug sensitivity score (DSS) for viability; higher = more toxic; extreme values may be limits of the assay
[12] = tested on: Vero E6; test: as above
[13] = tested on: Caco-2; test: as above
[14] = tested on: Calu-3; test: as above
[15] = tested on: HepG2; test: as above

| Compound | cell viability ([1]; 1 nM) [%] | cell viability ([1]; 10 nM) [%] | cell viability ([1]; 100 nM) [%] | cell viability ([1]; 1000 nM) [%] | cell viability ([1]; 10000 nM) [%] | cell viability ([2]; 1 nM) [%] | cell viability ([2]; 10 nM) [%] | cell viability ([2]; 100 nM) [%] | cell viability ([2]; 1000 nM) [%] | cell viability ([2]; 10000 nM) [%] | cell viability ([3]; 1 nM) [%] | cell viability ([3]; 10 nM) [%] | cell viability ([3]; 100 nM) [%] | cell viability ([3]; 1000 nM) [%] | cell viability ([3]; 10000 nM) [%] | cell viability ([4]; 1 nM) [%] | cell viability ([4]; 10 nM) [%] | cell viability ([4]; 100 nM) [%] | cell viability ([4]; 1000 nM) [%] | cell viability ([4]; 10000 nM) [%] | cell viability ([5]; 1 nM) [%] | cell viability ([5]; 10 nM) [%] | cell viability ([5]; 100 nM) [%] | cell viability ([5]; 1000 nM) [%] | cell viability ([5]; 10000 nM) [%] | relative viability EC50 [6] [µM] | relative viability EC50 [7] [µM] | relative viability EC50 [8] [µM] | relative viability EC50 [9] [µM] | relative viability EC50 [10] [µM] | drug sensitivity score [11] | drug sensitivity score [12] | drug sensitivity score [13] | drug sensitivity score [14] | drug sensitivity score [15] |
| --- | --- | --- | --- | --- | --- | --- | --- | --- | --- | --- | --- | --- | --- | --- | --- | --- | --- | --- | --- | --- | --- | --- | --- | --- | --- | --- | --- | --- | --- | --- | --- | --- | --- | --- | --- |
| CN1CC[C@@H]2CN3CCc4cccc(c43)[C@@H]2C1 [SDZ-SER-082] | 98.1 | 97.8 | 98.8 | 100 | 95.2 | 95.1 | 92.7 | 95.6 | 92.5 | 103 | 86.8 | 98.7 | 93.4 | 103 | 100 | 95.7 | 102 | 114 | 94.9 | 100 | 106 | 103 | 104 | 95.8 | 110 | > 10 | > 10 | > 10 | > 10 | > 10 | 0 | 0 | 0 | 0 | 0 |
| CC1(C)CC(=O)c2c(C(F)(F)F)nn(-c3ccc(C(N)=O)c(N[C@H]4CC[C@H](O)CC4)c3)c2C1 [SNX-2112] | 100 | 102 | 27.1 | 2.7 | 1.6 | 95.3 | 101 | 99.8 | 44.9 | 26.9 | 95.2 | 102 | 59.3 | 34.4 | 32.7 | 99.9 | 103 | 44.6 | 35.7 | 35.1 | 108 | 96.3 | 3.7 | 0.4 | 1.1 | 0.0659 | 0.639 | 0.0844 | 0.0505 | 0.0313 | 26.1 | 10.5 | 17.3 | 18.6 | 30.4 |
| Cc1[nH]c(/C=C2\C(=O)Nc3cc(-c4ccccc4)ccc32)c(C)c1CCC(=O)O [SU16f] | 104 | 97 | 102 | 95.5 | 89.1 | 92.9 | 93.3 | 93.8 | 92.8 | 87 | 98.7 | 100 | 97.5 | 91.9 | 83.3 | 99.8 | 108 | 107 | 103 | 104 | 92.3 | 95.1 | 87.6 | 97.9 | 76.8 | > 10 | > 10 | > 10 | > 10 | > 10 | 0.1 | 0 | 0.7 | 0 | 1 |
| C/C(=N\c1ccccc1N)c1c(C)cc(=O)n(O)c1O [SUN-B-8155] | 97.3 | 104 | 98.9 | 99.7 | 96.3 | 101 | 104 | 101 | 98.6 | 104 | 102 | 105 | 99.4 | 103 | 96.2 | 110 | 115 | 91.8 | 104 | 110 | 101 | 104 | 102 | 99.7 | 77.3 | > 10 | > 10 | > 10 | > 10 | > 10 | 0 | 0 | 0 | 0 | 0.8 |
| C[C@H](C[C@H](N)C(=O)O)C(=O)O [SYM-2081] | 100 | 97.5 | 100 | 97.7 | 106 | 101 | 102 | 95.1 | 104 | 93.4 | 103 | 96 | 105 | 97.5 | 98.4 | 102 | 88.4 | 96.6 | 95.3 | 102 | 104 | 88.4 | 91.9 | 96.6 | 93.8 | > 10 | > 10 | > 10 | > 10 | > 10 | 0 | 0 | 0 | 0 | 0 |
| Cc1cc(C(=O)Nc2cc(Oc3ccc4nc(NC(=O)C5CC5)cn4n3)ccc2C)n(C)n1 [TAK-593] | 101 | 103 | 98.4 | 95.1 | 94.1 | 99.6 | 101 | 96.3 | 95.4 | 91.1 | 98.4 | 99 | 93.2 | 97.6 | 80.5 | 94.6 | 102 | 97.6 | 101 | 98.3 | 99.1 | 95.5 | 93.1 | 104 | 75.4 | > 10 | > 10 | > 10 | > 10 | > 10 | 0 | 0 | 0.9 | 0 | 0.7 |
| CN(C)CCNc1nc2cc(O)ccc2c2c1C(=O)c1ccccc1-2 [TAS-103] | 99.4 | 95.3 | 95.3 | 49.5 | 0 | 101 | 106 | 84.8 | 40 | 0.1 | 102 | 104 | 102 | 56.8 | 22.3 | 109 | 93.4 | 89.1 | 50.4 | 15.4 | 100 | 95.9 | 66.3 | 15.5 | 0.3 | 0.975 | 0.634 | 0.915 | 0.67 | 0.19 | 11.5 | 13.4 | 9.6 | 11.1 | 19.7 |
